System: MV-4-11 cells
Assay: Gene expression microarray analysis (Affymetrix PrimeView) and GSEA
Format: cell-based, human
Set-up: RFU PODN (11730768_x_at) / Fold change /veh PODN (11730768_x_at) / RFU LINC00158 (11744669_a_at) / Fold change /veh LINC00158 (11744669_a_at) / RFU DUSP10 (11751237_a_at) / Fold change /veh DUSP10 (11751237_a_at) / RFU ID3 (11757404_x_at) / Fold change /veh ID3 (11757404_x_at) / RFU PLEKHG5 (11737974_s_at) / Fold change /veh PLEKHG5 (11737974_s_at) / RFU LRRC4B (11730491_at) / Fold change /veh LRRC4B (11730491_at) / RFU GIMAP4 (11747438_a_at) / Fold change /veh GIMAP4 (11747438_a_at) / RFU KRT8 (11758183_x_at) / Fold change /veh KRT8 (11758183_x_at) / RFU CNN1 (11734310_a_at) / Fold change /veh CNN1 (11734310_a_at) / RFU VPS37D (11726825_at) / Fold change /veh VPS37D (11726825_at) / RFU C10orf10 (11716522_x_at) / Fold change /veh C10orf10 (11716522_x_at) / RFU KIR2DL2 /// KIR2DL4 /// KIR2DL5A /// KIR2DL5B /// KIR2DS1 /// KIR2DS2 /// KIR2DS3 /// KIR2DS4 /// KIR3DL3 /// KIR3DL3 /// KIR3DS1 (11738374_at) / Fold change /veh KIR2DL2 /// KIR2DL4 /// KIR2DL5A /// KIR2DL5B /// KIR2DS1 /// KIR2DS2 /// KIR2DS3 /// KIR2DS4 /// KIR3DL3 /// KIR3DL3 /// KIR3DS1 (11738374_at) / RFU C1QL1 (11718748_at) / Fold change /veh C1QL1 (11718748_at) / RFU TMPRSS4 (11747572_a_at) / Fold change /veh TMPRSS4 (11747572_a_at) / RFU HAMP (11756126_x_at) / Fold change /veh HAMP (11756126_x_at) / RFU RNFT2 (11725882_a_at) / Fold change /veh RNFT2 (11725882_a_at) / RFU NR4A2 (11747474_a_at) / Fold change /veh NR4A2 (11747474_a_at) / RFU ABCC12 (11746883_a_at) / Fold change /veh ABCC12 (11746883_a_at) / RFU TMEM136 (11760407_x_at) / Fold change /veh TMEM136 (11760407_x_at) / RFU CLDN22 /// WWC2 (11732394_at) / Fold change /veh CLDN22 /// WWC2 (11732394_at) / RFU HLA-DPB1 (11760878_x_at) / Fold change /veh HLA-DPB1 (11760878_x_at) / RFU SPINT1 (11716480_a_at) / Fold change /veh SPINT1 (11716480_a_at) / RFU GAP43 (11754022_s_at) / Fold change /veh GAP43 (11754022_s_at) / RFU A4GNT (11735810_at) / Fold change /veh A4GNT (11735810_at) / RFU PRB3 (11715151_x_at) / Fold change /veh PRB3 (11715151_x_at) / RFU TUBB4B (11761932_at) / Fold change /veh TUBB4B (11761932_at) / RFU CAPN14 (11732068_a_at) / Fold change /veh CAPN14 (11732068_a_at) / RFU TMCC2 (11721928_a_at) / Fold change /veh TMCC2 (11721928_a_at) / RFU IRGQ (11745062_a_at) / Fold change /veh IRGQ (11745062_a_at) / RFU FAM174B (11720279_a_at) / Fold change /veh FAM174B (11720279_a_at) / RFU TMPRSS4 (11748680_a_at) / Fold change /veh TMPRSS4 (11748680_a_at) / RFU FAM212B (11763350_a_at) / Fold change /veh FAM212B (11763350_a_at) / RFU PLEKHG5 (11743358_a_at) / Fold change /veh PLEKHG5 (11743358_a_at) / RFU ZSCAN30 (11745921_a_at) / Fold change /veh ZSCAN30 (11745921_a_at) / RFU CMKLR1 (11741424_a_at) / Fold change /veh CMKLR1 (11741424_a_at) / RFU LOC101060620 /// MAPK8IP1 (11723275_at) / Fold change /veh LOC101060620 /// MAPK8IP1 (11723275_at) / RFU SPTSSB (11747773_x_at) / Fold change /veh SPTSSB (11747773_x_at) / RFU PRSS12 (11739890_at) / Fold change /veh PRSS12 (11739890_at) / RFU BIN1 (11741810_x_at) / Fold change /veh BIN1 (11741810_x_at) / RFU WNT11 (11732464_a_at) / Fold change /veh WNT11 (11732464_a_at) / RFU C10orf10 (11716521_a_at) / Fold change /veh C10orf10 (11716521_a_at) / RFU C5orf56 (11738089_at) / Fold change /veh C5orf56 (11738089_at) / RFU CYB561 (11721691_x_at) / Fold change /veh CYB561 (11721691_x_at) / RFU ANKRD19P (11752326_a_at) / Fold change /veh ANKRD19P (11752326_a_at) / RFU OR2T12 /// OR2T33 /// OR2T8 (11738714_s_at) / Fold change /veh OR2T12 /// OR2T33 /// OR2T8 (11738714_s_at) / RFU VCAN (11748164_a_at) / Fold change /veh VCAN (11748164_a_at) / RFU JSRP1 (11732532_at) / Fold change /veh JSRP1 (11732532_at) / RFU KRTAP10-11 (11738290_x_at) / Fold change /veh KRTAP10-11 (11738290_x_at) / RFU MYO3A (11730013_a_at) / Fold change /veh MYO3A (11730013_a_at) / RFU EBF3 (11725865_a_at) / Fold change /veh EBF3 (11725865_a_at) / RFU CAMK2N1 (11719241_x_at) / Fold change /veh CAMK2N1 (11719241_x_at) / RFU C5orf56 (11738088_a_at) / Fold change /veh C5orf56 (11738088_a_at) / RFU OLFML3 (11715873_a_at) / Fold change /veh OLFML3 (11715873_a_at) / RFU LOC100653217 /// NTM (11731650_a_at) / Fold change /veh LOC100653217 /// NTM (11731650_a_at) / RFU MAPK11 (11762145_a_at) / Fold change /veh MAPK11 (11762145_a_at) / RFU FIZ1 (11724087_x_at) / Fold change /veh FIZ1 (11724087_x_at) / RFU OASL (11726364_x_at) / Fold change /veh OASL (11726364_x_at) / RFU SOX15 (11748057_x_at) / Fold change /veh SOX15 (11748057_x_at) / RFU CD79A (11719716_a_at) / Fold change /veh CD79A (11719716_a_at) / RFU HIST1H1D (11736915_at) / Fold change /veh HIST1H1D (11736915_at) / RFU CASKIN2 (11723855_a_at) / Fold change /veh CASKIN2 (11723855_a_at) / RFU LOC730098 (11760151_x_at) / Fold change /veh LOC730098 (11760151_x_at) / RFU OR4N2 (11742367_at) / Fold change /veh OR4N2 (11742367_at) / RFU PRRT2 (11749266_a_at) / Fold change /veh PRRT2 (11749266_a_at) / RFU SNX32 (11753110_a_at) / Fold change /veh SNX32 (11753110_a_at) / RFU CDHR5 (11726645_a_at) / Fold change /veh CDHR5 (11726645_a_at) / RFU RCAN1 (11760418_a_at) / Fold change /veh RCAN1 (11760418_a_at) / RFU FAM167A (11723789_a_at) / Fold change /veh FAM167A (11723789_a_at) / RFU FAM26E (11764081_at) / Fold change /veh FAM26E (11764081_at) / RFU ISYNA1 (11749810_s_at) / Fold change /veh ISYNA1 (11749810_s_at) / RFU ACY1 (11761880_at) / Fold change /veh ACY1 (11761880_at) / RFU 11764098_at / Fold change /veh 11764098_at / RFU SAMD14 (11745864_x_at) / Fold change /veh SAMD14 (11745864_x_at) / RFU NPB (11741838_a_at) / Fold change /veh NPB (11741838_a_at) / RFU TMPRSS6 (11731388_a_at) / Fold change /veh TMPRSS6 (11731388_a_at) / RFU KRTAP10-2 (11738614_at) / Fold change /veh KRTAP10-2 (11738614_at) / RFU ARHGAP8 /// PRR5-ARHGAP8 (11727945_x_at) / Fold change /veh ARHGAP8 /// PRR5-ARHGAP8 (11727945_x_at) / RFU KRTAP5-7 /// NADSYN1 (11734609_at) / Fold change /veh KRTAP5-7 /// NADSYN1 (11734609_at) / RFU RASL12 (11751679_a_at) / Fold change /veh RASL12 (11751679_a_at) / RFU CDKN2B (11736163_a_at) / Fold change /veh CDKN2B (11736163_a_at) / RFU PRF1 (11729649_at) / Fold change /veh PRF1 (11729649_at) / RFU, ZNF638 /// ZNF638-IT1 / Fold change vs veh, ZNF638 /// ZNF638-IT1 / RFU, PANK3 / Fold change vs veh, PANK3 / RFU, SH3YL1 / Fold change vs veh, SH3YL1 / RFU, ZEB2 / Fold change vs veh, ZEB2 / RFU, NRIP1 / Fold change vs veh, NRIP1 / RFU, PTTG1IP / Fold change vs veh, PTTG1IP / RFU, CAPN2 / Fold change vs veh, CAPN2 / RFU, MED14 / Fold change vs veh, MED14 / RFU, SNORA58 / Fold change vs veh, SNORA58 / RFU, C1orf63 / Fold change vs veh, C1orf63 / RFU, LRRFIP1 / Fold change vs veh, LRRFIP1 / RFU, NDUFAF7 / Fold change vs veh, NDUFAF7 / RFU, SLC12A2 / Fold change vs veh, SLC12A2 / RFU, IBTK / Fold change vs veh, IBTK / RFU, ESF1 / Fold change vs veh, ESF1 / Fold change vs veh, TMEM50B / RFU, TAOK1 / Fold change vs veh, TAOK1 / RFU, ACBD3 / Fold change vs veh, ACBD3 / RFU, TMA16 / Fold change vs veh, TMA16 / RFU, RWDD3 / Fold change vs veh, RWDD3 / RFU, BCAT1 / Fold change vs veh, BCAT1 / RFU, EDEM3 / Fold change vs veh, EDEM3 / RFU, TMEM33 / Fold change vs veh, TMEM33 / RFU, WDR75 / Fold change vs veh, WDR75 / RFU, AHCTF1 / Fold change vs veh, AHCTF1 / RFU, TFRC / Fold change vs veh, TFRC / RFU, ZDHHC17 / Fold change vs veh, ZDHHC17 / RFU, NOM1 / Fold change vs veh, NOM1 / RFU, ARL8B / Fold change vs veh, ARL8B / RFU, ZBTB11 / Fold change vs veh, ZBTB11 / RFU, TAMM41 / Fold change vs veh, TAMM41 / RFU, KIAA1704 /// LOC100996395 / Fold change vs veh, KIAA1704 /// LOC100996395 / RFU, ING1 / Fold change vs veh, ING1 / RFU, TRMT61B / Fold change vs veh, TRMT61B / RFU, FUBP3 / Fold change vs veh, FUBP3 / RFU, TP53 / Fold change vs veh, TP53 / RFU, TNKS2 / Fold change vs veh, TNKS2 / RFU, ZFP14 / Fold change vs veh, ZFP14 / RFU, ACTR2 / Fold change vs veh, ACTR2 / RFU, PPP3R1 / Fold change vs veh, PPP3R1 / RFU, PIK3R1 / Fold change vs veh, PIK3R1 / RFU, HNRNPA1 / Fold change vs veh, HNRNPA1 / RFU, RNF170 / Fold change vs veh, RNF170 / RFU, ZNF28 / Fold change vs veh, ZNF28 / RFU, RNGTT / Fold change vs veh, RNGTT / RFU, OGT / Fold change vs veh, OGT / RFU, BRD1 / Fold change vs veh, BRD1 / RFU, MARS / Fold change vs veh, MARS / RFU, ZNF655 / Fold change vs veh, ZNF655 / RFU, FAHD1 / Fold change vs veh, FAHD1 / RFU, BDP1 / Fold change vs veh, BDP1 / RFU, LRRCC1 / Fold change vs veh, LRRCC1 / RFU, ARID1A / Fold change vs veh, ARID1A / RFU, ZNF146 / Fold change vs veh, ZNF146 / RFU, ZNF330 / Fold change vs veh, ZNF330 / RFU, GPN3 / Fold change vs veh, GPN3 / RFU, C9orf123 / Fold change vs veh, C9orf123 / RFU, N4BP2L2 / Fold change vs veh, N4BP2L2 / RFU, ARFIP1 / Fold change vs veh, ARFIP1 / RFU, FAM179B / Fold change vs veh, FAM179B / RFU, BCL10 / Fold change vs veh, BCL10 / RFU, UHRF1BP1L / Fold change vs veh, UHRF1BP1L / RFU, BET1 / Fold change vs veh, BET1 / RFU, CNOT2 / Fold change vs veh, CNOT2 / RFU, ZNF268 / Fold change vs veh, ZNF268 / Fold change vs veh, ZNF507 / RFU, DGCR2 / Fold change vs veh, DGCR2 / RFU, WDSUB1 / Fold change vs veh, WDSUB1 / Fold change vs veh, HSP90B1 /// MIR3652 / RFU, ADSS / Fold change vs veh, ADSS / RFU, GK / Fold change vs veh, GK / RFU, ZNF148 / Fold change vs veh, ZNF148 / RFU, TAF9 / Fold change vs veh, TAF9 / RFU, SLC1A5 / Fold change vs veh, SLC1A5 / RFU, SLMO2 / Fold change vs veh, SLMO2 / RFU, ABCC4 / Fold change vs veh, ABCC4 / RFU, LOC101060439 /// RAP1B / Fold change vs veh, LOC101060439 /// RAP1B / RFU, RFX7 / Fold change vs veh, RFX7 / RFU, GTPBP10 / Fold change vs veh, GTPBP10 / RFU, CNEP1R1 / Fold change vs veh, CNEP1R1 / RFU, BIVM-ERCC5 /// ERCC5 / Fold change vs veh, BIVM-ERCC5 /// ERCC5 / RFU, ILF3 / Fold change vs veh, ILF3 / RFU 11762660_at / Fold change /veh 11762660_at / RFU VCAN (11757783_s_at) / Fold change /veh VCAN (11757783_s_at) / RFU DDX43 (11728927_at) / Fold change /veh DDX43 (11728927_at) / RFU KRT8 (11758188_x_at) / Fold change /veh KRT8 (11758188_x_at) / RFU NKD1 (11759106_at) / Fold change /veh NKD1 (11759106_at) / RFU SRD5A1 (11742802_a_at) / Fold change /veh SRD5A1 (11742802_a_at) / RFU TPSAB1 /// TPSB2 (11721975_s_at) / Fold change /veh TPSAB1 /// TPSB2 (11721975_s_at) / RFU GSTM3 (11746129_a_at) / Fold change /veh GSTM3 (11746129_a_at) / RFU IL23R (11737362_x_at) / Fold change /veh IL23R (11737362_x_at) / RFU TMEM51 (11727254_a_at) / Fold change /veh TMEM51 (11727254_a_at) / RFU PIWIL2 (11732686_x_at) / Fold change /veh PIWIL2 (11732686_x_at) / RFU ORM1 (11744905_x_at) / Fold change /veh ORM1 (11744905_x_at) / RFU CCDC152 (11743942_at) / Fold change /veh CCDC152 (11743942_at) / RFU ECM1 (11717891_a_at) / Fold change /veh ECM1 (11717891_a_at) / RFU IL23R (11748794_a_at) / Fold change /veh IL23R (11748794_a_at) / RFU TNFAIP8L3 (11732012_x_at) / Fold change /veh TNFAIP8L3 (11732012_x_at) / RFU MBOAT4 (11741988_at) / Fold change /veh MBOAT4 (11741988_at) / RFU 11764193_at / Fold change /veh 11764193_at / RFU TMEM53 (11763286_at) / Fold change /veh TMEM53 (11763286_at) / RFU MAGEB2 (11727129_at) / Fold change /veh MAGEB2 (11727129_at) / RFU TMEM200A (11744735_a_at) / Fold change /veh TMEM200A (11744735_a_at) / RFU CCDC152 (11751479_a_at) / Fold change /veh CCDC152 (11751479_a_at) / RFU FAM211A (11726209_a_at) / Fold change /veh FAM211A (11726209_a_at) / RFU RGS16 (11746705_a_at) / Fold change /veh RGS16 (11746705_a_at) / RFU VCAN (11755009_s_at) / Fold change /veh VCAN (11755009_s_at) / RFU RHOB (11743442_s_at) / Fold change /veh RHOB (11743442_s_at) / RFU RGS16 (11720943_a_at) / Fold change /veh RGS16 (11720943_a_at) / RFU RGS16 (11720944_at) / Fold change /veh RGS16 (11720944_at) / RFU, VPS4B / Fold change vs veh, VPS4B / RFU, CREB1 / Fold change vs veh, CREB1 / RFU, DNAJC13 / Fold change vs veh, DNAJC13 / RFU, GNAQ / Fold change vs veh, GNAQ / RFU, CDK5R1 / Fold change vs veh, CDK5R1 / RFU, ZRANB3 / Fold change vs veh, ZRANB3 / RFU, CUL4A / Fold change vs veh, CUL4A / RFU, CCNY / Fold change vs veh, CCNY / RFU, UFL1 / Fold change vs veh, UFL1 / RFU, COG3 / Fold change vs veh, COG3 / RFU, DIAPH2 / Fold change vs veh, DIAPH2 / RFU, SKA2 / Fold change vs veh, SKA2 / RFU, AFF3 / Fold change vs veh, AFF3 / RFU, LMF1 / Fold change vs veh, LMF1 / RFU, IPO11 / Fold change vs veh, IPO11 / RFU, DFFB / Fold change vs veh, DFFB / RFU, FOXP1 / Fold change vs veh, FOXP1 / RFU, CARD8 / Fold change vs veh, CARD8 / RFU, STRN3 / Fold change vs veh, STRN3 / RFU, ADK / Fold change vs veh, ADK / RFU, RASSF2 / Fold change vs veh, RASSF2 / RFU, WIPF1 / Fold change vs veh, WIPF1 / RFU, LARP1B / Fold change vs veh, LARP1B / RFU, RASA1 / Fold change vs veh, RASA1 / RFU, RB1 / Fold change vs veh, RB1 / RFU, PPFIA1 / Fold change vs veh, PPFIA1 / RFU, MAT2A / Fold change vs veh, MAT2A / RFU, CCT5 / Fold change vs veh, CCT5 / RFU, WDR92 / Fold change vs veh, WDR92 / RFU, CUX1 / Fold change vs veh, CUX1 / RFU, TTC7A / Fold change vs veh, TTC7A / RFU, TMEM135 / Fold change vs veh, TMEM135 / RFU, DEPTOR / Fold change vs veh, DEPTOR / RFU, CPM / Fold change vs veh, CPM / RFU, DNAJB6 / Fold change vs veh, DNAJB6 / RFU, CACNA2D3 / Fold change vs veh, CACNA2D3 / RFU, DTX4 / Fold change vs veh, DTX4 / RFU, TFCP2 / Fold change vs veh, TFCP2 / RFU, GMCL1 /// GMCL1P1 / Fold change vs veh, GMCL1 /// GMCL1P1 / RFU, AEBP2 / Fold change vs veh, AEBP2 / RFU, SNHG1 /// SNORD22 /// SNORD25 /// SNORD26 /// SNORD27 /// SNORD28 /// SNORD29 /// SNORD31 / Fold change vs veh, SNHG1 /// SNORD22 /// SNORD25 /// SNORD26 /// SNORD27 /// SNORD28 /// SNORD29 /// SNORD31 / Fold change (Aza/veh), C12orf56 (ProbeSet 11735607_a_at) / Fold change (ACY-1035/veh), C12orf56 (ProbeSet 11735607_a_at) / Fold change (Aza/veh), FGFR1OP (ProbeSet 11751329_s_at) / Fold change (ACY-1035/veh), FGFR1OP (ProbeSet 11751329_s_at) / Fold change (Aza/veh), VPS36 (ProbeSet 11739960_a_at) / Fold change (ACY-1035/veh), VPS36 (ProbeSet 11739960_a_at) / RFU SYPL1 (11715823_x_at) / Fold change /veh SYPL1 (11715823_x_at) / RFU IGFBP7 (11715501_s_at) / Fold change /veh IGFBP7 (11715501_s_at) / RFU REEP3 (11722064_at) / Fold change /veh REEP3 (11722064_at) / RFU IGLL1 (11728026_x_at) / Fold change /veh IGLL1 (11728026_x_at): dose or concentration left out as unconfirmed
Conditions: ProbeSet 11753623_s_at; LIST D

## Nc1ccc(-c2cccs2)cc1NC(=O)c1ccc2c(c1)cc(C1CC1)n2CCN1CCOCC1 [ACY-1035]
  RFU, LOC101060439 /// RAP1B: 312.98 RFU
